The values below come from patent US9815846B2 (Merck Sharp & Dohme Corp., priority 2014, dated 2017).

Structures are written as SMILES.

The experiment deals with human TrkA receptor (Homo sapiens (Human), UniProt P04629). Nature of the experiment: DiscoverX PathHunter TrkA functional assay (NGF-stimulated U2OS cells). As to conditions: U2OS cells expressing human TrkA-PK, Shc1-EA and p75NTR; compound 1 h, then NGF at ~80% of maximal response for 3 h; luminescence. The class given is cell-based.
human TrkA receptor, sequence (P04629 33-796): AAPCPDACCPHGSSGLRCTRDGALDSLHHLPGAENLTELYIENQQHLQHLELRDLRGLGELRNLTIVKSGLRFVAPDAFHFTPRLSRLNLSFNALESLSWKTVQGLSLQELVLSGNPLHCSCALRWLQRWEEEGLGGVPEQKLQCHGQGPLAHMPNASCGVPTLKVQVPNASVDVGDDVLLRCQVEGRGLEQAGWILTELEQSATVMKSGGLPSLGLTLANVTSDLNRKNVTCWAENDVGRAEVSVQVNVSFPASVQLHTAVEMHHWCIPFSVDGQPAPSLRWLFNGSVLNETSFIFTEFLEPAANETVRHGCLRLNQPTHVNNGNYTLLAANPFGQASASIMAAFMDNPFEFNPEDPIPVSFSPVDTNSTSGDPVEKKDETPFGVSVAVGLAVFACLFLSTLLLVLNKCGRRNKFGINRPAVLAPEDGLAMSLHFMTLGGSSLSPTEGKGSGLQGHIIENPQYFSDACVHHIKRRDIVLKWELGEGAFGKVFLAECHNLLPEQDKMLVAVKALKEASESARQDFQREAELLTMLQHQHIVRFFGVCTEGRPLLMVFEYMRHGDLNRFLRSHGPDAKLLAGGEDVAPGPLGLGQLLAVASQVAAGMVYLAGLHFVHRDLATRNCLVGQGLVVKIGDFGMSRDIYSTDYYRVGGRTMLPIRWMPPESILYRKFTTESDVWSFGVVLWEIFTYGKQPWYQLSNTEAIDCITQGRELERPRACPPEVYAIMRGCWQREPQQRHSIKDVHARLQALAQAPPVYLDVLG
Procedure: TrkA functional activity was measured using a DiscoverX PathHunter assay. In this assay, U2OS cells express the human TrkA receptor as a fusion with the weakly complementing fragment of B-galactosidase, which DiscoverX calls “Prolink (PK)”; additionally, Shcl is fused with a larger fragment, which is called “Enzyme Acceptor (EA)”. Activation of the TrkA receptor, upon NGF addition, results in the kinase domain being phosphorylated, resulting in subsequent recruitment of Shcl-EA protein. That recruitment results in an active B-galactosidase enzyme that is detected by addition of a chemiluminescent substrate. The human p75^NTR protein was also expressed as a co-receptor for NGF.
All reagents were purchased from DiscoverX, except for the receptor agonists (NGF, BDNF, NT3) which were purchased from Peprotech. Cells were expanded and frozen into cryovials, and stored in the vapor phase of liquid nitrogen, and thawed immediately before use. Thawed cells were added to a 384-well plate at 7500 cells/well, and allowed to incubate overnight. Compound at various concentrations was added the following morning and allowed to incubate on cells for 1 h. Then, NGF was added at a concentration sufficient to elicit ˜80% of a maximal response and allowed to incubate for 3 h at ambient temperature. DiscoverX PathHunter detection reagent was then added and the plate was further incubated for 1 h in the dark. The plate was then read via luminescence on the Perkin Elmer Envision.
The molecule `Cn1ccc(-c2cc(C(=O)Nc3cnc(CC#N)nc3-c3ccccc3)c(F)cc2C(F)(F)F)n1` [Example 34, N-(2-(cyanomethyl)-4-phenylpyrimidin-5-yl)-2-fluoro-5-(1-methyl-1H-pyrazol-3-yl)-4-(trifluoromethyl)benzamide] displayed a 50% inhibitory concentration (IC50) of 0.69 nM. Take `Cn1ccc(-c2cc(C(=O)Nc3cnc(CO)nc3-c3ccccc3)ccc2C(F)(F)F)n1` [Example 35, N-(2-(Hydroxymethyl)-4-phenylpyrimidin-5-yl)-3-(1-methyl-1H-pyrazol-3-yl)-4-(trifluoromethyl)benzamide]: 7.3 nM corresponded to half-maximal inhibition (IC50). To `O=C(Nc1cnc(CO)nc1-c1ccccc1)c1ccc(C(F)(F)F)c(-c2cc[nH]n2)c1` [Example 36, N-(2-(hydroxymethyl)-4-phenylpyrimidin-5-yl)-3-(1H-pyrazol-3-yl)-4-(trifluoromethyl)benzamide] belongs 24 nM; to `Cn1ccc(-c2cc(C(=O)Nc3cnc(CCO)nc3-c3ccccc3)ccc2C(F)(F)F)n1` [Example 37, N-(2-(2-hydroxyethyl)-4-phenylpyrimidin-5-yl)-3-(1-methyl-1H-pyrazol-3-yl)-4-(trifluoromethyl)benzamide], 4 nM; to `Cn1ccc(-c2cc(C(=O)Nc3cnc(CCN4CCOCC4)nc3-c3ccccc3)ccc2C(F)(F)F)n1` [Example 38, 3-(1-methyl-1H-pyrazol-3-yl)-N-(2-(2-morpholinoethyl)-4-phenylpyrimidin-5-yl)-4-(trifluoromethyl)benzamide], 25 nM. The molecule `O=C(Nc1cnc(CO)nc1-c1ccccc1)c1ccc(C(F)(F)F)c(-c2ncccn2)c1` [Example 39, N-(2-(Hydroxymethyl)-4-phenylpyrimidin-5-yl)-3-(pyrimidin-2-yl)-4-(trifluoromethyl)benzamide] registered a half-inhibitory concentration (IC50) of 70 nM. To `O=C(Nc1cnc(CO)nc1-c1ccccc1)c1ccc(C(F)(F)F)c(-c2cc[nH]n2)c1` [Example 40, N-(2-(hydroxymethyl)-4-phenylpyrimidin-5-yl)-3-(1H-pyrazol-3-yl)-4-(trifluoromethyl)benzamide] belongs 12 nM; to `Cn1ccc(-c2cc(C(=O)Nc3cnc(CNC(=O)OC(C)(C)C)nc3-c3ccccc3)ccc2C(F)(F)F)n1` [Example 41, t-Butyl ((5-(3-(1-methyl-1H-pyrazol-3-yl)-4-(trifluoromethyl)benzamido)-4-phenylpyrimidin-2-yl)methyl)carbamate], 5 nM. To `Cn1ccc(-c2cc(C(=O)Nc3cnc(CN)nc3-c3ccccc3)ccc2C(F)(F)F)n1` [Example 42, N-(2-(Aminomethyl)-4-phenylpyrimidin-5-yl)-3-(1-methyl-1H-pyrazol-3-yl)-4-(trifluoromethyl)benzamide] belongs 21 nM; to `NCc1ncc(NC(=O)c2ccc(C(F)(F)F)c(-c3ccn(C(F)F)n3)c2)c(-c2ccccc2)n1` [Example 43], 55 nM. Then `Cc1ncc(NC(=O)c2ccc(C(F)(F)F)c(-c3ccn(C)n3)c2)c(-c2cccc(CO)c2)n1` [Example 44, N-(4-(3-(Hydroxymethyl)phenyl)-2-methylpyrimidin-5-yl)-3-(1-methyl-1H-pyrazol-3-yl)-4-(trifluoromethyl)benzamide], with 20 nM; and `CNCc1ncc(NC(=O)c2ccc(C(F)(F)F)c(-c3ccn(C)n3)c2)c(-c2ccccc2)n1` [Example 45], with 16 nM.

Consider `Cc1nc(CO)c(NC(=O)c2ccc(C(F)(F)F)c(-c3ccn(C)n3)c2)c(-c2ccccc2)n1` [Example 46, N-(4-(Hydroxymethyl)-2-methyl-6-phenylpyrimidin-5-yl)-3-(1-methyl-1H-pyrazol-3-yl)-4-(trifluoromethyl)benzamide], for which the IC50 came to 24 nM. Turning to `Cn1ccc(-c2cc(C(=O)Nc3ccc(C(C)(C)O)nc3-c3ccccc3)ccc2C(F)(F)F)n1` [Example 47, N-(6-(2-hydroxypropan-2-yl)-2-phenylpyridin-3-yl)-3-(1-methyl-1H-pyrazol-3-yl)-4-(trifluoromethyl)benzamide], the concentration for half-maximal inhibition (IC50) came out at 1.3 nM. To `C[C@H](O)C(=O)NCc1ncc(NC(=O)c2cc(-c3ccn(C)n3)c(C(F)(F)F)cc2F)c(-c2ccccc2)n1` [Example 48] belongs 1.1 nM. Molecule `CC(=O)NCc1ncc(NC(=O)c2ccc(C(F)(F)F)c(-c3ccn(C)n3)c2)c(-c2ccccc2)n1` [Example 49, N-(2-(acetamidomethyl)-4-phenylpyrimidin-5-yl)-3-(1-methyl-1H-pyrazol-3-yl)-4-(trifluoromethyl)benzamide] displayed an IC50 of 3.6 nM.

`Cn1ccc(-c2cc(C(=O)Nc3cnc(CNC(=O)CO)nc3-c3ccccc3)ccc2C(F)(F)F)n1` [Example 50, N-(2-((2-hydroxyacetamido)methyl)-4-phenylpyrimidin-5-yl)-3-(1-methyl-1H-pyrazol-3-yl)-4-(trifluoromethyl)benzamide] came in with an IC50 of 3.6 nM. On to `Cn1ccc(-c2cc(C(=O)Nc3cnc(CNC(=O)C4CC4)nc3-c3ccccc3)ccc2C(F)(F)F)n1` [Example 51, N-(2-(cyclopropanecarboxamidomethyl)-4-phenylpyrimidin-5-yl)-3-(1-methyl-1H-pyrazol-3-yl)-4-(trifluoromethyl)benzamide], for which the half-inhibitory concentration (IC50) amounted to 4.9 nM. `Cn1ccc(-c2cc(C(=O)Nc3cnc(CNC(=O)CO)nc3-c3ccccc3)c(F)cc2C(F)(F)F)n1` [Example 52, 2-fluoro-N-(2-((2-hydroxyacetamido)methyl)-4-phenylpyrimidin-5-yl)-5-(1-methyl-1H-pyrazol-3-yl)-4-(trifluoromethyl)benzamide] had an IC50 of 1.6 nM. Then `Cn1ccc(-c2cc(C(=O)Nc3ccc(CNC(=O)CO)nc3-c3ccccc3)ccc2C(F)(F)F)n1` [Example 53, N-(6-((2-hydroxyacetamido)methyl)-2-phenylpyridin-3-yl)-3-(1-methyl-1H-pyrazol-3-yl)-4-(trifluoromethyl)benzamide], with 5.7 nM. Consider `CC(=O)NCc1ncc(NC(=O)c2cc(-c3cc[nH]n3)c(C(F)(F)F)cc2F)c(-c2ccccc2)n1` [Example 54, N-(2-(acetamidomethyl)-4-phenylpyrimidin-5-yl)-2-fluoro-5-(1H-pyrazol-3-yl)-4-(trifluoromethyl)benzamide], for which the midpoint of inhibition, the IC50, lay at 9.3 nM. With `Cn1ccc(-c2cc(C(=O)Nc3cnc(CNC(=O)CO)cc3-c3ccccc3)ccc2C(F)(F)F)n1` [Example 55, N-(6-((2-hydroxyacetamido)methyl)-4-phenylpyridin-3-yl)-3-(1-methyl-1H-pyrazol-3-yl)-4-(trifluoromethyl)benzamide], inhibition was half-maximal at 14 nM (IC50). In turn, `C[C@H](O)C(=O)NCc1ccc(NC(=O)c2cc(-c3ccn(C)n3)c(C(F)(F)F)cc2F)c(-c2ccccc2)n1` [Example 56, (S)-2-fluoro-N-(6-((2-hydroxypropanamido)methyl)-2-phenylpyridin-3-yl)-5-(1-methyl-1H-pyrazol-3-yl)-4-(trifluoromethyl)benzamide] returned an IC50 of 0.45 nM. To `Cn1ccc(-c2cc(C(=O)Nc3ccc(CNC(=O)[C@@H]4CCC(=O)N4)nc3-c3ccccc3)c(F)cc2C(F)(F)F)n1` [Example 57, (S)-N-((5-(2-fluoro-5-(1-methyl-1H-pyrazol-3-yl)-4-(trifluoromethyl)benzamido)-6-phenylpyridin-2-yl)methyl)-5-oxopyrrolidine-2-carboxamide] belongs 1.1 nM. To `COCC(=O)NCc1ccc(NC(=O)c2cc(-c3ccn(C)n3)c(C(F)(F)F)cc2F)c(-c2ccccc2)n1` [Example 58, 2-fluoro-N-(6-((2-methoxyacetamido)methyl)-2-phenylpyridin-3-yl)-5-(1-methyl-1H-pyrazol-3-yl)-4-(trifluoromethyl)benzamide] belongs 0.19 nM; to `Cn1ccc(-c2cc(C(=O)Nc3ccc(CNC(=O)CS(C)(=O)=O)nc3-c3ccccc3)c(F)cc2C(F)(F)F)n1` [Example 59, 2-fluoro-5-(1-methyl-1H-pyrazol-3-yl)-N-(6-((2-(methylsulfonyl)acetamido)methyl)-2-phenylpyridin-3-yl)-4-(trifluoromethyl)benzamide], 0.23 nM; to `C[C@@H](O)C(=O)NCc1ncc(NC(=O)c2cc(-c3ccn(C)n3)c(C(F)(F)F)cc2F)c(-c2ccccc2)n1` [Example 60, (R)-2-fluoro-N-(2-((2-hydroxypropanamido)methyl)-4-phenylpyrimidin-5-yl)-5-(1-methyl-1H-pyrazol-3-yl)-4-(trifluoromethyl)benzamide], 1.1 nM. To `COCC(=O)NCc1ncc(NC(=O)c2cc(-c3ccn(C)n3)c(C(F)(F)F)cc2F)c(-c2ccccc2)n1` [Example 64, 2-fluoro-N-(2-((2-methoxyacetamido)methyl)-4-phenylpyrimidin-5-yl)-5-(1-methyl-1H-pyrazol-3-yl)-4-(trifluoromethyl)benzamide] belongs 0.44 nM; to `Cn1ccc(-c2cc(C(=O)Nc3ncc(CNC(=O)CO)nc3-c3ccccc3)c(F)cc2C(F)(F)F)n1` [Example 65, 2-fluoro-N-(5-((2-hydroxyacetamido)methyl)-3-phenylpyrazin-2-yl)-5-(1-methyl-1H-pyrazol-3-yl)-4-(trifluoromethyl)benzamide], 3.3 nM; to `Cn1ccc(-c2cc(C(=O)Nc3cnc(CNC(=O)CS(C)(=O)=O)nc3-c3ccccc3)c(F)cc2C(F)(F)F)n1` [Example 67, 2-fluoro-5-(1-methyl-1H-pyrazol-3-yl)-N-(2-((2-(methylsulfonyl)acetamido)methyl)-4-phenylpyrimidin-5-yl)-4-(trifluoromethyl)benzamide], 1.6 nM.

For `Cn1ccc(-c2cc(C(=O)Nc3cnc(CNC(=O)Cn4cncn4)nc3-c3ccccc3)c(F)cc2C(F)(F)F)n1` [Example 68], it took 0.4 nM to reach half-maximal inhibition (IC50). To `Cn1ccc(-c2cc(C(=O)Nc3ncc(CNC(=O)CO)cc3-c3ccccc3)c(F)cc2C(F)(F)F)n1` [Example 69, 2-fluoro-N-(5-((2-hydroxyacetamido)methyl)-3-phenylpyridin-2-yl)-5-(1-methyl-1H-pyrazol-3-yl)-4-(trifluoromethyl)benzamide] belongs 18 nM.

The term IC50 denotes the concentration that inhibits the measured activity by half.
